Here are results for eight compounds from patent US8106155B2, “Test kit for determining process for determining antibiotics containing a beta-lactam ring in a biological fluid” (Neogen Corporation, priority 1998, dated 2012).

The target in assay [1] is T1, BlaR-CTD receptor (Bacillus licheniformis, UniProt P12287).
T1 construct: uses the BlaR-CTD receptor coupled to gold beads
Description: 5-minute test: BlaR-CTD coupled to gold beads, membrane test device, milk. The assay is classed as binding. Conditions: 47° C.; for concentration detected in a sample of milk: test carried out in 5 minutes, positive when 1st band less intense than 2nd band; for Intensity 1st band: 5-minute test, scale 0 to 10, reference band 6. Here is the method:
(§1) This example illustrates the detection in milk of antibiotics containing a β-lactam ring, which are controlled by the health authorities. The test described in this example uses the BlaR-CTD receptor coupled to gold beads which serve as labelling agents, and uses a support in the form of a test device comprising a solid support to which membranes are attached.
6 samples of fresh milk containing 0; 2; 4; 6; 8 and 10 ppb of cloxacillin, respectively, are prepared. Each of these solutions is then analyzed in the following way.
A 200 μl aliquot sample of milk and 45.27 μl of solution prepared in Example 1.1.3 are taken and placed in a glass flask. This mixture is incubated for 3 minutes at 47° C. A test device is taken and placed vertically in the glass flask such that the first end of the test device is in contact with the mixture and such that the second end rests on the wall of the glass flask. The mixture is left to migrate on the test device, while incubating the assembly for 2 minutes at 47° C.
An intensity value ranging from 0 to 10 is attributed to the bands detected, the value 10 being given to the most intense band and the value 0 being given to the least intense band. According to this scale, a value of 6 is assigned to the reference band. The intensity of the signal observed in the first band is inversely proportional to the amount of cloxacillin present in the sample.
(§2) In this example, when the first band has an intesity less than that of the second band, the test is considered as being positive.

The target of assay [2] is T1, BlaR-CTD receptor. The experiment in a line: 9-minute test: BlaR-CTD coupled to gold beads, membrane test device, milk. It is filed as binding. Conditions: test carried out in 9 minutes, 47° C.; positive when 1st band less intense than 2nd band. Here is the method: as §1
6 samples of fresh milk containing 0; 4; 6; 8; 10 and 12 ppb of cephapirin, respectively, are prepared. Each of these solutions is then analyzed in the following way.
A 200 μl aliquot sample of milk and 45.27 μl of solution prepared in Example 1.1.3 are taken and placed in a glass flask. This mixture is incubated for 7 minutes at 47° C. A test device is taken and placed vertically in the glass flask such that the first end of the test device is in contact with the mixture and such that the second end rests on the wall of the glass flask. The mixture is left to migrate on the test device, while incubating the assembly for 2 minutes at 47° C.
An intensity value ranging from 0 to 10 is attributed to the bands detected, the value 10 being given to the most intense band and the value 0 being given to the least intense band. According to this scale, a value of 6 is assigned to the reference band. The intensity of the signal observed in the first band is inversely proportional to the amount of cephapirin present in the sample.
as §2

Assay [3] has as its system protein isolated from an antibiotic-sensitive microorganism, such as Bacillus stearothermophilus. Particulars: Example 1 of European Patent Application 593 112; cited from earlier work.
Assay [4] concerns the target T1, BlaR-CTD receptor. Description: 3-minute rapid test: BlaR-CTD coupled to gold beads, membrane test device, milk. The assay is classed as binding. Conditions: test carried out in 3 minutes, 47° C.; positive when 1st band less intense than 2nd band. As to the method: as §1
7 samples of fresh milk containing 0; 1; 2; 3; 4; 5 and 6 ppb of penicillin G, respectively, are prepared. Each of these solutions is then analyzed in the following way:
A 200 μl aliquot sample of milk and 45.27 μl of solution prepared in Example 1.1.3 are taken and placed in a glass flask. This mixture is incubated for 1 minute at 47° C. A test device is taken and placed vertically in the glass flask such that the first end of the test device is in contact with the mixture and such that the second end rests on the wall of the glass flask. The mixture is left to migrate on the test device, while incubating the assembly for 2 minutes at 47° C.
An intensity value ranging from 0 to 10 is attributed to the bands detected, the value 10 being given to the most intense band and the value 0 being given to the least intense band. According to this scale, a value of 6 is assigned to the reference band. The intensity of the signal observed in the first band is inversely proportional to the amount of penicillin G present in the sample.
as §2

The target in assay [5] is T2, BlaR-CTD receptor in the form of two fusion proteins with alkaline phosphatase and peroxidase (Bacillus licheniformis, UniProt P12287).
T2 construct: uses the BlaR-CTD receptor in the form of two fusion proteins with alkaline phosphatase and peroxidase, respectively; alkaline phosphatase, chemically coupled (Boehringer-Mannheim 1464752); peroxidase, chemically coupled (Boehringer-Mannheim 1428861)
T2 sequence (P12287 354-601): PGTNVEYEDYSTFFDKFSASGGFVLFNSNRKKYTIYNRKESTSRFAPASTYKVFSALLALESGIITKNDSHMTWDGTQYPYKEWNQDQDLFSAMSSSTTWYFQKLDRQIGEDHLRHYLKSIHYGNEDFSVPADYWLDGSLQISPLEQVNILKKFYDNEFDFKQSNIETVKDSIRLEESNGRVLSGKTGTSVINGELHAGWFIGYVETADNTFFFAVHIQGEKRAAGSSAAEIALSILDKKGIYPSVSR
Description: Example 3: BlaR-CTD fusion proteins with alkaline phosphatase and peroxidase, cephalosporin C microplate, milk. The assay is classed as binding. Conditions: absorbance at 405 nm, 47° C., at the control thresholds required by the US authorities. An excerpt: This example illustrates the detection in milk of 3 antibiotics containing a β-lactam ring which are controlled by the health authorities. The test described in this example uses the BlaR-CTD receptor in the form of two fusion proteins with alkaline phosphatase and peroxidase, respectively, and uses a support in the form of a microplate.
Polystyrene microplates with high protein adsorption, of the brand name NUNK (Immuno Plate: Maxisorp type) or of the brand name GREINER (microlon 600, reference 705071), are used. The microplate cuvettes are washed with 150 mM, pH 7.2 PBS buffer. Next, an aliquot of the solution prepared in Example 3.3.1. is incubated for 24 hours at 4° C. in the cuvettes. After incubation, the cuvettes are washed three times with 150 mM, pH 7.2 PBS buffer, 0.1% Tween-20. The tube is then saturated for two hours at 20° C. with 150 mM, pH 7.2 PBS saturation buffer, 5% BSA. After washing three times with washing buffer, the tubes are dried and stored at 4° C. away from moisture.
For the cuvettes intended for the BlaR-CTD-alkaline phosphatase recognition agent, the washing buffer used is 1 M, pH 9.8 diethanolamine, 0.5 mM MgCl2: for the cuvettes intended for the BlaR-CTD-peroxidase recognition agent, the washing buffer used is 50 mM, pH 5 potassium phosphate.
1.4 picomol of labelled recognition agent are incubated in the presence of 100 μl of doped milk for 5 minutes at 47° C. The milk is transferred using a pipette into a cuvette which has been pretreated as indicated in Example 2.3. The milk is then incubated for 2 minutes at 47° C. […] The plate is then placed in an automatic spectrophotometer for ELISA plates, the wavelength being set at 405 nm.

T1 sequence (P12287 354-601): as above

As to `CC1(C)S[C@@H]2[C@H](NC(=O)[C@H](N)c3ccc(O)cc3)C(=O)N2[C@H]1C(=O)O` [amoxicillin], the “concentration detected in a sample of milk” value at BlaR-CTD receptor [1] is listed as 4 ppb; at BlaR-CTD receptor [2], 4 ppb; on BlaR-CTD receptor [4] it was 5 ppb. Further, in assay [3], the concentration detected is 5 ppb.
Consider `CC1(C)S[C@@H]2[C@H](NC(=O)[C@H](N)c3ccccc3)C(=O)N2[C@H]1C(=O)O` [ampicillin], for which the “concentration detected in a sample of milk” value on BlaR-CTD receptor [1] is given as 4 ppb; at BlaR-CTD receptor [2] it was 4 ppb; on BlaR-CTD receptor [4] it was 5 ppb. Further, the concentration detected in assay [3] was 10 ppb.
On to `Cc1nnc(SCC2=C(C(=O)O)N3C(=O)[C@@H](NC(=O)Cn4cnnn4)[C@H]3SC2)s1` [cefazoline], for which the “concentration detected in a sample of milk” value was found to be 60 ppb at BlaR-CTD receptor [1] and 45 ppb at BlaR-CTD receptor [2].
As to `CO/N=C(\C(=O)N[C@@H]1C(=O)N2C(C(=O)[O-])=C(C[n+]3cccc4c3CCCC4)CS[C@H]12)c1csc(N)n1` [cefquinone], the “concentration detected in a sample of milk” value on BlaR-CTD receptor [1] is listed as “less than 20 ppb”.
With `Cc1onc(-c2ccccc2Cl)c1C(=O)N[C@@H]1C(=O)N2[C@@H]1SC(C)(C)[C@@H]2C(=O)O` [cloxacillin], the “Intensity 1st band” value on BlaR-CTD receptor [1] (2 ppb cloxacillin in milk) was 6; on BlaR-CTD receptor [1] (4 ppb cloxacillin in milk) it was 5; on BlaR-CTD receptor [1] (6 ppb cloxacillin in milk) it was 3; at BlaR-CTD receptor [1] (8 ppb cloxacillin in milk), 3; on BlaR-CTD receptor [1] (10 ppb cloxacillin in milk), 3. For the same compound, the “concentration detected in a sample of milk” value was “less than 4 ppb” at BlaR-CTD receptor [1], 4 ppb on BlaR-CTD receptor [2] and “less than 10 ppb” at BlaR-CTD receptor [4]. In assay [5], the “concentration detected in milk” value stood at 10 ppb.
`Cc1onc(-c2c(Cl)cccc2Cl)c1C(=O)N[C@@H]1C(=O)N2[C@@H]1SC(C)(C)[C@@H]2C(=O)O` [dicloxacillin]: the “concentration detected in a sample of milk” value on BlaR-CTD receptor [1] is 8 ppb.
On the same count and under the same terms, the value for `CCOc1ccc2ccccc2c1C(=O)N[C@@H]1C(=O)N2[C@@H]1SC(C)(C)[C@@H]2C(=O)O` [nafcillin] was 20 ppb; that for `Cc1onc(-c2ccccc2)c1C(=O)N[C@@H]1C(=O)N2[C@@H]1SC(C)(C)[C@@H]2C(=O)O` [oxacillin] was 8 ppb.
